According to patent US20250032530A1, “USE OF AURANOFIN AS AN INHIBITOR OF ATYPICAL PROTEIN KINASE C FOR TREATMENT OF NEURODEGENERATIVE DISORDERS” (UNIVERSITY OF SOUTH FLORIDA, priority 2021, published 2025):
Where two headings read alike, the source gives them in different places.

What was measured:
[1] = tested on: BACE1; experiment: BACE1 levels in LA1-5s neuronal cells treated with insulin; assay type: cell-based, human
Procedure: Values of BACE1 are Mean±SEM of 4 values. Asterisks indicate P<0.05 for comparison of designated group versus the untreated control group (ANOVA).
(§1) LA1-5s neuronal cells were originally obtained from non-catecholamine-producing neuroblastoma of a person and are commercially available from the European Collection of Authenticated Cell Cultures. Incubation conditions were as described.
(§2) As described, western analyses were conducted with rabbit antisera, using: anti-aPKC [recognizes a C-terminal sequence in all aPKCs (Santa Cruz Biotechnologies, Santa Cruz, CA, USA)]; anti-phospho-threonine (thr)-560/555-PKC-ζ/λ/ι [recognizes a phosphopeptide sequence present in all aPKCs and indicates activation (Invitrogen, Carlsbad, CA, USA)]; anti-phospho-serine (ser)-473-Akt [recognizes a phosphopeptide sequence at 60 kDa present in all Akt's-1/2/3 and indicates activation (Cell Signaling Technologies, Danvers, MA, USA)]; anti-4 kDa-AP1-40/42 (Cell Signaling Technologies, Danvers, MA, USA); anti-mouse-70 kDa-BACE1 and anti-human-70 kDa-BACE1 (ThermoFisher); and anti-phospho-threonine (thr)-231-tau (Gene Tex, Irvine, CA, USA). Samples from all experimental groups within each study were compared on the same blots and routinely checked with loading controls. All comparisons in histograms were made relative to the mean value of the basal control group, i.e., wild-type mice consuming standard low-fat mouse chow, untreated with insulin or aPKC inhibitors, and having normal levels of aPKCs and other cellular proteins.

[2] = molecular target: T1, recombinant PKC-ζ (Homo sapiens, UniProt Q05513); conditions: cited from earlier work
T1 sequence (Q05513 1-592): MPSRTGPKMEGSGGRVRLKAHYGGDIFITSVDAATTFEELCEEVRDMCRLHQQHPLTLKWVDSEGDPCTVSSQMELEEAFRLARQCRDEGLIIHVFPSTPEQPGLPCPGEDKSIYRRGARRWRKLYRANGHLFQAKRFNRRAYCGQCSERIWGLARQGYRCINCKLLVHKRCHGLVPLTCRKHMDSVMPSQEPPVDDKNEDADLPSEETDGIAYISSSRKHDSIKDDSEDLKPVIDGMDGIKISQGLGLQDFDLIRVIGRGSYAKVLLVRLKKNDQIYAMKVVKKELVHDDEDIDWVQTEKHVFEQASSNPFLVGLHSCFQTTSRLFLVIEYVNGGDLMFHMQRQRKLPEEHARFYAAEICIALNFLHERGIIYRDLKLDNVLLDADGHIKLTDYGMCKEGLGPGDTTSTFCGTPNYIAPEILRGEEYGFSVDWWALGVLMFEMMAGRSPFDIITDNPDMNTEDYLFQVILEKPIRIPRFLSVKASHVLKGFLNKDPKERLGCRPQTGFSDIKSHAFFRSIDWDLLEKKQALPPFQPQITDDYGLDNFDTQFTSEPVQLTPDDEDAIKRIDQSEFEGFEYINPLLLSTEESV

[3] = molecular target: T2, recombinant PKC-ι/λ (Homo sapiens, UniProt P41743); conditions: cited from earlier work
T2 sequence (P41743 1-596): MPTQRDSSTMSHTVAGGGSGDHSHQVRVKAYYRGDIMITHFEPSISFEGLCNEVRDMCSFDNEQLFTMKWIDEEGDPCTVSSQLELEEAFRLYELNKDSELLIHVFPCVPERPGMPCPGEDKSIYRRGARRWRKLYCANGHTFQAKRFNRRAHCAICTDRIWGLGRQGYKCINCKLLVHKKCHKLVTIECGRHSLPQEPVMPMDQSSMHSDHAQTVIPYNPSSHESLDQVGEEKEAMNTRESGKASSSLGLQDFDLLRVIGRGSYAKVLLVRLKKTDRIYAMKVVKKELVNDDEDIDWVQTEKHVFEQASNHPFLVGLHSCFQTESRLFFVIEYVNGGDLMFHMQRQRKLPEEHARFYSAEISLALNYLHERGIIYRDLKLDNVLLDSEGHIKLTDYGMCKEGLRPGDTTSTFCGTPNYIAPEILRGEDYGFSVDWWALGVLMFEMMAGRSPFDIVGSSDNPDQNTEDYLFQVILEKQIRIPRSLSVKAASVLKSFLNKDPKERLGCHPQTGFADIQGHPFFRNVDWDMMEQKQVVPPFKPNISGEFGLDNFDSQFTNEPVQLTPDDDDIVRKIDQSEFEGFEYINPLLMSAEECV

[4] = tested on: recombinant forms of PKC-α, PKC-β, PKC-δ, PKCε, or PKC-θ; conditions: cited from earlier work
[5] = tested on: aPKC, Akt2, AMP-activated kinase (AMPK), FoxO1; conditions: isolated human hepatocytes; cited from earlier work
[6] = tested on: NFκB; experiment: Insulin-induced NFκB activity in LA1-5s neuronal cells; assay type: cell-based, human; conditions: 200 nM insulin, 24 hours; 1 μM ACPD, increasing concentrations of auranofin
From the text: (§3) Cell lysates were subjected to Western analyses for phosphorylated/activated forms of aPKC, NFκB and Akt. Representative blots of indicated proteins are shown in upper bands. […] Bargrams show Mean±SEM of 3-4 determinations. Asterisks indicate P<0.05; comparison of designated group versus the uninhibited, insulin-treated group (ANOVA).
as §1
as §2, with “Samples from all experimental groups within each study were compared on the same blots and routinely checked with loading controls. All comparisons in histograms were made relative to the mean value of the basal control group, i.e., wild-type mice consuming standard low-fat mouse chow, untreated with insulin or aPKC inhibitors, and having normal levels of aPKCs and other cellular proteins.” left out

[7] = molecular target: T2, recombinant PKC-ι/λ; experiment: Inhibition of recombinant PKC-ι/λ; assay type: biochemical; conditions: Example 2
Procedure: 1H-imidazole-4-carboxamide,-5-amino-1-[2,3-dihydroxy-4-[(hydroxyl)methyl]cyclopentyl-[1R-(1a,2b,3b,4a)] […] (ICAPP).
aPKC Inhibitors. We identified by HTS compounds that target the substrate-binding site of aPKCs and potently (IC50s10-30 nM) inhibit recombinant PIP3-dependent aPKCs, but not DAG-dependent PKCs. Three compounds have been studied in detail: (a) 1H-imidazole-4-carboxamide, 5-amino-1-[2,3-dihydroxy-4-[(phosphono-oxy)methyl]cyclopentyl-[1R-(1a,2b,3b,4a)] […] Thus, these agents can reduce brain aPKC activity, indirectly at lower doses by inhibiting liver aPKC and correcting hyperinsulinemia in insulin-resistant states, and, at higher doses, by acting directly on brain PKC-λ/ι.

[8] = tested on: aPKC; conditions: cited from earlier work
[9] = tested on: PKC-λ/ι activity, BACE1 activity, Aβ1-40/42; conditions: LA1-5s neuronal cells, previously reported; cited from earlier work
[10] = tested on: Akt; experiment: Insulin-induced Akt activation in LA1-5s neuronal cells; assay type: cell-based, human; conditions: 200 nM insulin, 24 hours
From the text: as §3, §1
as §2, with “Samples from all experimental groups within each study were compared on the same blots and routinely checked with loading controls. All comparisons in histograms were made relative to the mean value of the basal control group, i.e., wild-type mice consuming standard low-fat mouse chow, untreated with insulin or aPKC inhibitors, and having normal levels of aPKCs and other cellular proteins.” left out

[11] = tested on: PKCι and PKCζ; conditions: cited from earlier work

IC50 [7] [nM] | SMILES | insulin-induced increase in BACE1 levels ([1]; 200 nM insulin, 24 hours, increasing concentrations of ICAPP) | basal/resting levels of BACE1 ([1]; at higher levels of inhibitor) | IC50 [2] [nM] | IC50 [3] [nM] | effect on recombinant PKC-α, PKC-β, PKC-δ, PKCε, PKC-θ [4] | FoxO1 phosphorylation/inactivation [5] | inhibition of aPKC, Akt2, AMPK [5] | insulin-induced increase in NFκB activity [6] | inhibition of brain aPKC ([8]; at higher doses) | aPKC inhibition in liver, muscle, adipose tissue ([8]; intact mice, employed doses) | insulin-induced increases in PKC-λ/ι activity, BACE1 activity and production of Aβ1-40/42 [9] | insulin-induced Akt activation [10] | insulin activation of aPKC (PB1 site) [11]
1 to 10 | NC(=O)c1ncn([C@@H]2C[C@H](COP(=O)(O)O)[C@@H](O)[C@H]2O)c1N [ICAPP] | diminished | reduced basal/resting levels of BACE1 | 200 to 500 | 1 to 10 | no effect | increase FoxO1 phosphorylation/inactivation | inhibit aPKC but not Akt2 or AMP-activated kinase (AMPK) | diminished | inhibit brain aPKC | inhibit aPKC in liver, but not in muscle or adipose tissue | blocked | not Akt activation | –
– | O=C(O)CC([S-])C(=O)O.[Au+] (centres unmarked) [aurothiomalate] | – | – | – | – | – | – | – | – | – | – | – | – | inhibit insulin activation of aPKC
